From patent US9499493B2, “2,4-pyrimidinediamine compounds and their uses” (Rigel Pharmaceuticals, Inc., priority 2002, dated 2016)
pIC50: −log10 of the molar value.

How the values were obtained:
[1] = system: cultured human mast cells (CHMC); assay: CHMC low cell density IgE activation: tryptase assay; type: cell-based; settings: anti-IgE
Summary of the method: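 Supernatant tryptase activity, assayed with substrate for 30 min at room temperature, served as the degranulation measure. Mast cells (1000-1500 per well depending on donor) sat 1 hr at 37° C in MT before a 30 min anti-IgE challenge at 37° C.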

[2] = Pharmacokinetics / oral bioavailability in rats; type: in vivo; settings: rats
Procedure: Over 50 2,4-pyrimidinediamine compounds of the invention were tested for oral bioavailability. For the study, compounds were dissolved in various vehicles (e.g. PEG 400 solution and CMC suspension) for intravenous and oral dosing in the rats. Following administration of the drug, plasma samples were obtained and extracted. The plasma concentrations of the compounds were determined by high performance liquid chromatography/tandem mass spectrometry (LC/MS/MS) methods. Pharmacokinetic analyses were performed based on the plasma concentration data. The pharmacokinetic parameters of interest include Clearance (CL), Volume of distribution at steady-state (Vss), terminal half-life (t1/2), and oral bioavailability (% F).

[3] = system: cultured human mast cells (CHMC); assay: CHMC low cell density ionomycin activation: tryptase assay; type: cell-based
[4] = system: FcγRI-mediated degranulation; assay: FcγRI receptor-mediated degranulation (activation with anti-human IgG Fab fragment); type: cell-based; settings: cells not primed with IgE, activated with rabbit anti-human IgG Fab fragment
[5] = system: cultured human mast cells (CHMC); assay: CHMC high cell density IgE activation: LTC4; type: cell-based; settings: anti-IgE activation
Procedure: (§1) Inhibition of degranulation was measured at both low and high cell density by quantifying the release of the granule specific factors tryptase, histamine and hexosaminidase. Inhibition of release and/or synthesis of lipid mediators was assessed by measuring the release of leukotriene LTC4 and inhibition of release and/or synthesis of cytokines was monitored by quantifying TNF-α, IL-6 and IL-13. Tryptase and hexosaminidase were quantified using fluorogenic substrates as described in their respective examples. […] The protocols of the various assays are provided below.
(§2) After sensitizing, cells are counted, pelleted (1000 rpm, 5-10 minutes), and resuspended at 1-2×10^6 cells/ml in MT buffer. Add 100 ul of cell suspension to each well and 100 ul of compound dilutions. The final vehicle concentration is 0.5% DMSO. Incubate at 37° C. (5% CO2) for 1 hour. After 1 hour of compound treatment, stimulate cells with 6× anti-IgE. Mix wells with the cells and allow plates to incubate at 37° C. (5% CO2) for one hour. After 1 hour incubation, pellet cells (10 minutes, 1000 RPM) and collect 200 ul per well of the supernatant, being careful not to disturb pellet. Place the supernatant plate on ice. During the 7-hour step (see next) perform tryptase assay on supernatant that had been diluted 1:500. Resuspend cell pellet in 240 ul of CM media containing 0.5% DMSO and corresponding concentration of compound. Incubate CHMC cells for 7 hours at 37° C. (5% CO2). After incubation, pellet cells (1000 RPM, 10 minutes) and collect 225 ul per well and place in −80° C. until ready to perform ELISAS. ELISAS are performed on appropriately diluted samples (determined empirically for each donor cell population so that the sample measurement falls within the standard curve) following the supplier's instructions.

[6] = system: cultured human mast cells (CHMC); assay: CHMC high cell density IgE activation: IL-13; type: cell-based; settings: anti-IgE activation
Procedure: as §1, §2

[7] = system: cultured human mast cells (CHMC); assay: CHMC high cell density IgE activation: tryptase; type: cell-based; settings: anti-IgE activation
Procedure: as §2

[8] = system: cultured human mast cells (CHMC); assay: CHMC high cell density IgE activation: TNFalpha; type: cell-based; settings: anti-IgE activation; read-out: CHMC high density TNF-alpha
Procedure: as §1, §2

[9] = system: cultured human mast cells (CHMC); assay: CHMC high cell density IgE activation: histamine; type: cell-based; settings: anti-IgE activation
Procedure: as §1, §2

[10] = system: cultured human mast cells (CHMC); assay: CHMC high cell density IgE activation: hexos (hexosaminidase) release; type: cell-based; settings: anti-IgE activation
Procedure: as §1, §2

[11] = system: cultured human mast cells (CHMC); assay: CHMC low cell density IgE activation: LTC4 assay; type: cell-based; settings: anti-IgE
Procedure: Pellet CHMC cells (980 rpm, 10 min) and resuspend in pre-warmed MT. Add 65 ul of cells to each 96-well plate. Depending on the degranulation activity for each particular CHMC donor, load 1000-1500 cells/well. Mix four times followed by a 1 hr incubation at 37° C. […] Stimulate cells by adding 25 ul of 6× anti-IgE solution to the appropriate plates. Add 25 ul MT to un-stimulated control wells. Mix twice following addition of the anti-IgE. Incubate at 37° C. for 30 minutes. […] Spin plates at 1000 rpm for 10 min to pellet cells. Transfer 25 ul of supernatant to a 96-well black bottom plate and add 100 ul of freshly diluted tryptase substrate solution to each well. Incubate plates at room temperature for 30 min.
Leukotriene C4 (LTC4) is also quantified using an ELISA kit on appropriately diluted supernatant samples (determined empirically for each donor cell population so that the sample measurement falls within the standard curve) following the supplier's instructions.

[12] = system: bone marrow derived mast cells (BMMC); assay: BMMC high cell density IgE activation: LTC4; type: cell-based, mouse; settings: anti-IgE, second part of TABLE 1
Procedure: as §1
(§3) After sensitizing, cells are counted, pelleted (1000 rpm, 5-10 minutes), and resuspended at 1-3×10^6 cells/ml in MT buffer. Add 100 ul of cell suspension to each well and 100 ul of compound dilutions. The final vehicle concentration is 0.5% DMSO. Incubate at 37° C. (5% CO2) for 1 hour. After 1 hour of compound treatment, stimulate cells with 6× stimulus (60 ng/ml DNP-BSA). Mix wells with the cells and allow plates to incubate at 37° C. (5% CO2) for one hour. After 1 hour incubation, pellet cells (10 minutes, 1000 RPM) and collect 200 ul per well of the supernatant, being careful not to disturb pellet, and transfer to a clean tube or 96-well plate. Place the supernatant plate on ice. During the 4-5 hour step (see next) perform the hexosiminidase assay. Resuspend cell pellet in 240 ul WEI-conditioned media containing 0.5% DMSO and corresponding concentration of compound. Incubate BMMC cells for 4-5 hours at 37° C. (5% CO2). After incubation, pellet cells (1000 RPM, 10 minutes) and collect 225 ul per well and place in −80° C. until ready to perform ELISAS. ELISAS are performed on appropriately diluted samples (determined empirically for each donor cell population so that the sample measurement falls within the standard curve) following the supplier's instructions.

[13] = system: bone marrow derived mast cells (BMMC); assay: BMMC high cell density IgE activation: hexosaminidase; type: cell-based, mouse; settings: anti-IgE, second part of TABLE 1, read-out: BMMC anti-IgE hexos. IC50
Procedure: as §3
Hexosaminidase assay: In a solid black 96-well assay plate, add 50 uL hexosaminidase substrate (4-methylumbelliferyl-N-acetyl-(3-D-glucosaminide; 2 mM) to each well. Add 50 uL of BMMC cell supernatant (see above) to the hexoseaminidase substrate, place at 37° C. for 30 minutes and read the plate at 5, 10, 15, and 30 minutes on a spectrophotometer.

[14] = system: bone marrow derived mast cells (BMMC); assay: BMMC high cell density IgE activation: histamine; type: cell-based, mouse; settings: anti-IgE, second part of TABLE 1
Procedure: as §1, §3

Jurkat cells = assay: Jurkat toxicity, Cell Titer Glo assay; type: cell-based; settings: 18 hours incubation
Procedure: Seed 50 μl cells (1×10^6/ml) into each well containing 50 μl compound. […] Shake plates for 1 minute to mix cells and compound. Incubate plates at 37° C. […] Next day, harvest 50 μl cells from each well, add to 50 μl Cell Titer Glo reagent ([…]). Shake plates for 1 minute. Read on luminometer.

[15] = system: bone marrow derived mast cells (BMMC); assay: BMMC high cell density IgE activation: IL-6; type: cell-based, mouse; settings: anti-IgE, second part of TABLE 1
Procedure: as §1, §3

[16] = system: bone marrow derived mast cells (BMMC); assay: BMMC high cell density IgE activation: TNFalpha; type: cell-based, mouse; settings: anti-IgE, second part of TABLE 1, read-out: BMMC anti-IgE TNF-alpha IC50
Procedure: as §1, §3

SMILES	pIC50 [1]	oral bioavailabilities and half-lives (in words) [2]	pIC50 [3]	pIC50 [5]	pIC50 [6]	pIC50 [7]	pIC50 [8]	pIC50 [9]	pIC50 [10]	other results
Fc1cnc(Nc2ccc3cn[nH]c3c2)nc1Nc1ccc(Cl)c(Cl)c1 [R935372, N4-(3,4-Dichlorophenyl)-5-fluoro-N2-(indazoline-6-yl)-2,4-pyrimidinediamine]	7.22	good	< 5.00							FcγRI-mediated degranulation (in words) [4]: inhibit FcγRI-mediated degranulation
N#CCOc1ccc(Nc2ncc(F)c(Nc3ccc(OCC#N)cc3)n2)cc1 [R945032, N2,N4-Bis[4-(cyanomethyleneoxy)phenyl]-5-fluoro-2,4-pyrimidinediamine]	6.43		< 5.00	7.03	6.54	6.34	5.97	6.36	6.45	
Oc1cccc(Nc2nc(Nc3ccc(OCCN4CCOCC4)cc3)ncc2F)c1 [R926699, 5-Fluoro-N4-(3-hydroxyphenyl)-N2-[4-[2-(N-morpholino)ethyleneoxy]phenyl]-2,4-pyrimidinediamine]	6.12		< 5.00	> 5.96	5.89	> 5.96	> 5.96	5.84	> 5.96	
O=C(c1cc2cc(Nc3ncc(F)c(Nc4cccc(O)c4)n3)ccc2o1)N1CCOCC1 [R926488, 5-Fluoro-N4-(3-hydroxyphenyl)-N2-[2-(N-morpholino)carbonylbenzofuran-5-yl]-2,4-pyrimidinediamine]	6.48		< 5.00	6.70	5.99	6.21	5.61	6.10	6.28	pIC50 [11]: 6.12
O=C(COc1cccc(Nc2ncc(F)c(Nc3ccc4c(c3)OCCO4)n2)c1)NCCO [R926505, N4-(3,4-Ethylenedioxyphenyl)-5-fluoro-N2-[3-(2-hydroxyethylamino)carbonylmethyleneoxyphenyl]-2,4-pyrimidinediamine]	6.84		< 5.00							pIC50 [12]: > 6.66; pIC50 [13]: > 6.66; pIC50 [14]: > 6.66; pIC50 (Jurkat cells): 5.38; pIC50 [15]: > 6.66; pIC50 [16]: > 6.66
Cc1cc(Nc2nc(Nc3cccc(OCC(=O)N4CCNCC4)c3)ncc2F)cc(C)c1O [R945140, N4-(3,5-Dimethyl-4-hydroxyphenyl)-5-fluoro-N2-[3-(N-piperazino)carbonylmethyleneoxyphenyl]-2,4-pyrimidinediamine]	6.24		< 5.00		< 5.00	5.95	5.77	5.81	6.00	
COc1cc(Nc2ncc(F)c(Nc3ccc4c(c3)NC(=O)C(C)(C)O4)n2)cc(OC)c1 [R927050]		good								FcγRI-mediated degranulation (in words) [4]: inhibit FcγRI-mediated degranulation
Cn1ncc2cc(Nc3ncc(F)c(Nc4ccc5c(c4)OCCO5)n3)ccc21 [R935193, N4-(3,4-Ethylenedioxyphenyl)-5-fluoro-N2-(1-methyl-indazoline-5-yl)-2,4-pyrimidinediamine]	6.87	good	< 5.00							pIC50 [13]: 7.10; pIC50 [14]: 7.32; pIC50 [15]: 7.43
OCCCn1ncc2cc(Nc3ncc(F)c(Nc4ccc(Cl)c(Cl)c4)n3)ccc21 [R935391]		good								

The next lines start with results.

pIC50 [1]	oral bioavailabilities and half-lives (in words) [2]	pIC50 [3]	pIC50 [5]	pIC50 [6]	pIC50 [7]	pIC50 [8]	pIC50 [9]	pIC50 [10]	SMILES	other results
6.36		< 5.00	6.38	6.16	5.95		5.78	6.04	CNCCOc1cccc(Nc2ncc(F)c(Nc3ccc4c(c3)OCCO4)n2)c1 [R926510, N4-(3,4-Ethylenedioxyphenyl)-5-fluoro-N2-[3-[2-(N-methylamino)ethyleneoxy]phenyl]-2,4-pyrimidinediamine]	pIC50 (Jurkat cells): 5.56
		< 5.00							COc1cc(Nc2ncc(F)c(Nc3cccc(O)c3)n2)cc(OC)c1 [R926780, N2-(3.5-Dimethoxyphenyl)-5-fluoro-N4-(3-hydroxyphenyl)-2,4-pyrimidinediamine]	pIC50 [12]: 6.34; pIC50 [13]: > 6.66; pIC50 [14]: > 6.66; pIC50 (Jurkat cells): < 5.30; pIC50 [15]: > 6.66; pIC50 [16]: > 6.66
			> 5.96	> 5.96	> 5.96	> 5.96	> 5.96	> 5.96	N#CCOc1ccc(Nc2nc(Nc3cccc(O)c3)ncc2F)cc1 [R945071, N4-[4-(Cyanomethyleneoxy)phenyl]-5-fluoro-N2-(3-hydroxyphenyl)-2,4-pyrimidinediamine]	
	good	5.40							CC1(C)Oc2ccc(Nc3ncc(F)c(Nc4ccc5c(c4)NC(=O)C(C)(C)O5)n3)cc2NC1=O [R940350, N2,N4-[(2,2-Dimethyl-4H-benzo[1,4]oxazin-3-one)-6-yl]-5-fluoro-2,4-pyrimidinediamine]	FcγRI-mediated degranulation (in words) [4]: inhibit FcγRI-mediated degranulation
